Activity calls are given as the source filed them. The calls are words filed in the database; no cut-off is given here.
Tests used:
[1] = system: Raji; test: Inhibition of TPA-induced EBV-early antigen activation in human Raji cells at 500 molar ratio after 48 hrs by indirect immunofluorescence technique relative to TPA; type: cell-based; conditions: human gammaherpesvirus 4
[2] = Cytotoxicity against human Raji cells assessed as cell viability at 100 molar ratio; type: cell-based; conditions: read-out: Activity
[3] = organism: Mus musculus; test: Displacement of [3H]TPA from TPA receptor in ICR mouse dorsal epidermis
[4] = Cytotoxicity against human Raji cells assessed as cell viability at 10 molar ratio; type: cell-based; conditions: read-out: Activity
[5] = Cytotoxicity against human Raji cells assessed as cell viability at 500 molar ratio; type: cell-based; conditions: read-out: Activity
[6] = system: Raji; test: Inhibition of TPA-induced EBV-early antigen activation in human Raji cells at 10 molar ratio after 48 hrs by indirect immunofluorescence technique relative to TPA; type: cell-based; conditions: human gammaherpesvirus 4
[7] = system: Raji; test: Inhibition of TPA-induced EBV-early antigen activation in human Raji cells at 100 molar ratio after 48 hrs by indirect immunofluorescence technique relative to TPA; type: cell-based; conditions: human gammaherpesvirus 4
[8] = Cytotoxicity against human Raji cells assessed as cell viability at 1000 molar ratio; type: cell-based; conditions: read-out: Activity

Structure (SMILES) | EBV-EA activation % of TPA control [1] | viability at 100 molar ratio [2] | Activity [3] | viability at 10 molar ratio [4] | viability at 500 molar ratio [5] | EBV-EA activation % of TPA control [6] | EBV-EA activation % of TPA control [7] | viability at 1000 molar ratio [8]
CC(=O)c1cc2c(o1)C(=O)c1ccccc1C2=O [NAPABUCASIN] | 0% | 70% | inactive | > 80% | 0% | 32.7% | 0% | 0%
CC1=C(C/C=C(\C)CCC[C@H](C)CCC[C@H](C)CCCC(C)C)C(=O)c2ccccc2C1=O [PHYTONADIONE] | 100% | > 80% | – | > 80% | > 80% | 100% | 100% | 70%
Cc1ccnc2c1C(=O)c1cccc(O)c1C2=O | 15.4% | > 80% | – | > 80% | 60% | 89.1% | 67.4% | 40%
Cc1ccnc2c1C(=O)c1c(O)ccc(O)c1C2=O | 23.1% | > 80% | inactive | > 80% | 60% | 88.6% | 52.1% | 60%
COc1ccc2c(c1)C(=O)c1ccc3c(c1C2=O)OCO3 | 56.8% | > 80% | – | > 80% | > 80% | 100% | 78.9% | 70%
COc1cccc2c1C(=O)c1ccc3c(c1C2=O)OCO3 | 32.7% | > 80% | inactive | > 80% | > 80% | 100% | 33% | > 80%
Cc1ccc2c(n1)C(=O)c1c(O)ccc(O)c1C2=O | 13.5% | > 80% | inactive | > 80% | 60% | 86% | 43.8% | 10%
COc1c(C=O)c(O)cc2c1C(=O)c1ccccc1C2=O [DAMNACANTHAL] | 51.6% | > 80% | – | > 80% | > 80% | 100% | 92.8% | 60%
CC1(c2cc3c(o2)C(=O)c2ccccc2C3=O)OCCO1 | 0% | 10% | – | 60% | 10% | 32.4% | 0% | 0%
O=C1C=CC(=O)c2cc(O)ccc21 | 0% | 60% | – | > 80% | 60% | 92.3% | 67.2% | 10%
O=C1C=CC(=O)c2c(O)ccc(O)c21 [NAPHTHAZALIN] | 0% | 50% | – | > 80% | 40% | 68.9% | 0% | 20%
O=C1c2ccccc2C(=O)c2c1ccc(O)c2O [ATHRAQUINONES A] | 92.4% | > 80% | – | > 80% | > 80% | 100% | 100% | 60%
CN(C)C1=CC(=O)c2ccccc2C1=O | 89.2% | > 80% | – | > 80% | > 80% | 100% | 92.5% | > 80%
CN(C)C1=CC(=O)c2cc(O)ccc2C1=O | 68.5% | > 80% | – | > 80% | > 80% | 100% | 100% | 60%
CCCCCCCCCCCCCC(=O)O[C@@H]1[C@@H](C)[C@@]2(O)[C@@H](C=C(CO)C[C@]3(O)C(=O)C(C)=C[C@@H]23)[C@@H]2C(C)(C)[C@]12OC(C)=O | – | – | Active | – | – | – | – | –
O=C1c2ccc3c(c2C(=O)c2cccc(O)c21)OCO3 | 36.5% | > 80% | inactive | > 80% | > 80% | 79.5% | 53.8% | > 80%
O=C1c2ccccc2C(=O)c2cnccc21 | 13% | > 80% | – | > 80% | 10% | 100% | 69.5% | 10%
CC1=CC(=O)c2ccccc2C1=O [MENADIONE] | 0% | 70% | – | > 80% | 0% | 89.4% | 65.7% | 0%
CC(C)=CC[C@@H](O)C1=CC(=O)c2c(O)ccc(O)c2C1=O [SHIKONIN] | 0% | 50% | inactive | > 80% | 10% | 31.5% | 15.8% | 0%
Cc1cc(O)c2c(c1)C(=O)c1cc(O)cc(O)c1C2=O [EMODIN] | 54.2% | > 80% | – | > 80% | > 80% | 100% | 91.1% | > 80%
O=C1c2ccc(O)c(O)c2C(=O)c2c(O)ccc(O)c21 [QUINALIZARIN] | 0% | > 80% | – | > 80% | 60% | 100% | 88.4% | 40%
